Consider one compound from paper PMC12491715 (Acta Pharmaceutica Sinica. B, 2025).

Data set [1] has as its target hBChE (Homo sapiens, UniProt P06276). In words: hBChE binding kinetics: carbamoylation and decarbamoylation, initial velocity measurements. The format is biochemical. The method, then: The progress curves for the time courses of product formation for the hydrolysis of butyrylthiocholine iodide were measured on an Agilent Cary 3500 UV–VIS spectrophotometer with Compact Peltier (thermostated at 25 °C) at 412 nm using a 0.6 mL cuvette (optical path–0.5 cm). 30 mmol/L Tris buffer pH 7.0 with 1 mg/mL BSA and 0.02% NaN3 was used and all dilutions were done in glass vessels (note: dilute hBChE solutions rapidly lose activity, presumably due to adsorption to plastic, preventing meaningful decarbamoylation assays. In our hands, under the above conditions only, the diluted and stock solutions of hBChE were stable for at least a month at room temperature.). Total volume in the cuvette was always 500 μL, and enzyme solutions that gave upon dilution v0 = (dA/dt) ≈ 0.5 (for carbamoylation) and ≈ 1 for (for decarbamoylation) were used. For carbamoylation experiments, 0.5–1 μL of enzyme stock, 5 μL of compound solution, and 484 μL of buffer were preincubated for the specified time, then 10 μL of the mixture of 25 mmol/L Ellman’s reagent (DTNB) and 20 mmol/L butyrylthiocholine (large excess to prevent substrate depletion) were added, quickly mixed, and measurement started. […] The data analysis followed the literature[63]^,[98].

Data set [2] concerns ICR mice icv-injected with Aβ1–42. The data set can be described thus: Y maze spontaneous alternation, mice model with icv-injection of Aβ1–42. The data set is classed as in vivo. The conditions noted are these: ip, once a day. How it is done: Mice model with icv-injection of Aβ1–42 The experiments were performed using ICR male mice (8–10 weeks old, weight 18–20 g), which were purchased from Shanghai Bikai Animal Breeding Factory (Shanghai, China). Animals were housed in cages (6 mice per cage) at a constant temperature of 25±2 °C, humidity of 55%±10% and a light/dark (12:12) cycle. The mice had unlimited access to food and water prior to the experiment. Specified conditions for the maintenance of mice were ensured throughout the experiments, including tree bedding (Yizheng Anlimao Biotechnology Co., Ltd., China) and lab feed (Zimao, China). For behavioural tests, mice were selected randomly, each group consisted of 6 mice. The experiments were performed between 9 am and 3 pm.
According to the literature procedure, recombinant human hexafluoroisopropanol-pretreated Aβ1–42 from Merck Millipore (Darmstadt, Germany) was dissolved in 1% DMSO, diluted with saline to the final concentration of 2 mg/mL, and incubated for 72 h to form oligomers. […]
Spontaneous alternation (Y maze) test was used to assess working memory in mice. […] The experimental data recorded the number of times the animal entered the three arms in a row. […] The behavior of mice in the Y maze was recorded by Xeye Aba and processed by GraphPad Prism 5.

Data set [3] relates to C57BL/6JRccHsd mice. In words: Daily observation during repeated dosing. The data set is classed as in vivo. The conditions noted are these: 1 or 5 mg/kg p.o. daily for 27 days. The method, then: […]. […] Due to the nature of this pilot study, the mice were housed individually.
Seven animals received the 1 mg/kg dose of compound 8, and five animals received the 5 mg/kg dose of compound 8. Compound 8 was prepared as a stock solution in 100% MeCN (5 and 10 mg/mL) and kept refrigerated for the duration of the study. The dosages were prepared as follows: based on the animal’s body weight, a calculated volume of compound 8 stock solution was accurately pipetted onto a cubic piece (approx. 50 mg) of sterilized toast (Ölz multigrain toast, Rudolf Ölz Meisterbäcker GmbH & Co KG, Austria), and left to dry at room temperature for 5 min. Subsequently, 25 μL of 50% sucrose in distilled water were added at the same site to mask the bitter taste of compound 8. These dosage units were prepared twice a week during the study and stored in a closed glass petri dish at room temperature until use. For administration, the toast pieces were placed on the floor of the cage at the same time each day, and left for the animal to eat it voluntarily (the consumption of the dosage was confirmed by observation). Compound 8 was administered in this way for 27 days, eliminating the need for repeated handling and injection. The animals were observed daily for general activity level, hair coat quality or other abnormal behavior or clinical signs.

SMILES strings stand for the structures.

Sequence of hBChE (P06276 29-602): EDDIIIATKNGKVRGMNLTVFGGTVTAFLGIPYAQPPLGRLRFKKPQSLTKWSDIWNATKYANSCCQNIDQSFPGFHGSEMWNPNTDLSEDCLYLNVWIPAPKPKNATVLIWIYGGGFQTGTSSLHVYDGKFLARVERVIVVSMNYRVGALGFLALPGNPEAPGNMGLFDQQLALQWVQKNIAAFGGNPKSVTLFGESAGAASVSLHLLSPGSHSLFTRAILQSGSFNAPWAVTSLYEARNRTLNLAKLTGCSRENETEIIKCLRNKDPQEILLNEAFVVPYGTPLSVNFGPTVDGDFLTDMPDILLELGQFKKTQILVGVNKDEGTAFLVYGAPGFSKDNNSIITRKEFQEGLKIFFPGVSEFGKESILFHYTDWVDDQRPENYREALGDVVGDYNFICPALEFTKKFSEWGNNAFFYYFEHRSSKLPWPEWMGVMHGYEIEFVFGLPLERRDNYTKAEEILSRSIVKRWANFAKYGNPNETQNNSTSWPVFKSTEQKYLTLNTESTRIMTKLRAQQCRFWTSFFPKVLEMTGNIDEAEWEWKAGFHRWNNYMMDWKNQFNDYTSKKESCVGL

In the case of `CCN(CC)C(=O)n1cnc(C2(CC)Cc3ccccc3C2)c1` [Compound 8, N,N-Diethyl-4-(2-ethylindan-2-yl)-1H-imidazole-1-carboxamide], in data set [1], affinity was put at a Ki of 2.82 ± 0.2 µM. Besides, in data set [1] (25 °C), the “kcarb, carbamoylation” value worked out at 3.7±1.7 min^–1 and the “ΔG25°C‡, carbamoylation” value is 19.1 ± 0.3 kcal/mol. Also, the “reactivation period of the carbamoylated enzyme” value in data set [1] (Table 2) is greater than 10 days. Further, the “prolongation of decarbamoylation phase” value in data set [1] (compared to 6) is greater than 15 fold. Moreover, the “spontaneous alternation in the Y maze task” value in data set [2] is on record as “increased spontaneous alternation”. The “adverse effects on repeated dosing” value in data set [3] was “No adverse effects were observed”.

A word on the Ki: it is the dissociation constant of the complex between target and ligand, obtained from inhibition or displacement. High values mean weaker binding, low ones tighter binding.
